Where two headings read alike, the source gives them in different places.
What was measured:
[1] = system: HCV replicon (BB7 sequence) in Huh-7-Clone A cells; assay: HCV replicon assay: ELISA of NS5A protein in replicon-containing cells (Inhibition of Viral RNA Replication); type: cell-based; settings: read-out: Replicon
Method in brief: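 Huh-7-Clone A cells carrying subgenomic BB7 HCV replicon (G418-selectable) incubated 72 h with compound. NS5A protein quantified by cell ELISA: glutaraldehyde fixation, anti-NS5A monoclonal plus HRP secondary, TMB read at OD 650 nm. EC50 derived from 8-point serial dilution dose curve.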

[2] = biological target: T1, HCV NS5B (Hepatitis C virus genotype 1b, UniProt Q9WMX2); assay: Inhibition of viral RNA-dependent RNA polymerase (RdRp), in vitro biochemical assay; set-up: species or system HCV genotype 1b virus (BB7); settings: read-out: HCV pol-BB7 IC50
T1 construct: fusion protein, of which the carboxyl terminal 21 amino acids were removed to enhance its solubility; His tag (GSHHHHHH); made in house; host or cells: E. coli
Method in brief: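 Purified recombinant NS5B from a genotype 1b consensus (BB7), His-tagged, E. coli-expressed, with the C-terminal 21 residues deleted. Inhibition of RdRp activity in vitro was measured, and IC50 is the concentration giving 50% inhibition.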

[3] = Hepatitis C virus, HCV replicon assay, ranges of 50% effective concentration (EC50)
[4] = HCV NS5B polymerase, BB7 (genotype 1b), values given as range classes A-D
[5] = Hepatitis C virus, HCV replicon, range of EC50
[6] = HCV NS5B RdRp, BB7, reported as range class
[7] = HCV NS5B RdRp, BB7, class symbols A-D
[8] = Hepatitis C virus, ranges of EC50 in HCV replicon assay
[9] = Hepatitis C virus, HCV replicon assay, ranges of EC50
[10] = Hepatitis C virus, Huh-7-Clone A, NS5A ELISA, 72-hour incubation, ranges of EC50
[11] = purified His-tagged NS5B (BB7), carboxyl terminal 21 amino acids removed
[12] = HCV NS5B RdRp, BB7, activity class

## CNC(=O)c1c(-c2ccc(F)cc2)oc2cc(N(C)C)c(OC)cc12 [Example 394, 6-Dimethylamino-2-(4-fluoro-phenyl)-5-methoxy-benzofuran-3-carboxylic acid methylamide]
[1]; [3]
  EC50: < 1000 nM
[2]; [4]
  IC50: ≤ 500 nM

## CNC(=O)c1c(-c2ccc(F)cc2)oc2cc(N3CCOCC3)c(OCc3noc(-c4ccc(OC)cc4)n3)cc12 [Example 214, 2-(4-Fluoro-phenyl)-5-[5-(4-methoxy-phenyl)-[1,2,4]oxadiazol-3-ylmethoxy]-6-morpholin-4-yl-benzofuran-3-carboxylic acid methylamide]
[1]; [5]
  EC50: < 1000 nM
[2]; [6]
  IC50: 500 to 5000 nM

## 2-(4-Fluoro-phenyl)-6-(1H-imidazol-2-yl)-5-methoxy-benzofuran-3-carboxylic acid methylamide [Example 296]
[1]; HCV replicon assay, ranges of EC50
  EC50: < 1000 nM
[2]; [7]
  IC50: ≤ 500 nM

## CNC(=O)c1c(-c2ccc(F)cc2)oc2cc(N(CC3CC3)S(C)(=O)=O)c(OC(C)C)cc12 [Example 137, 6-(Cyclopropylmethyl-methanesulfonyl-amino)-2-(4-fluoro-phenyl)-5-isopropoxy-benzofuran-3-carboxylic acid methylamide]
[1]; [8]
  EC50: < 1000 nM
[2]; HCV NS5B RdRp, BB7 genotype 1b
  IC50: ≤ 500 nM

## CNC(=O)c1c(-c2ccc(F)cc2)oc2cc(-c3ccoc3)c(OC(C)C)cc12 [Example 152, 2-(4-Fluoro-phenyl)-6-furan-3-yl-5-isopropoxy-benzofuran-3-carboxylic acid methylamide]
[1]; [8]
  EC50: < 10000 nM
[2]; HCV NS5B RdRp, BB7 genotype 1b
  IC50: ≤ 500 nM

## CNC(=O)c1c(-c2ccc(F)cc2)oc2cc(N(C)S(C)(=O)=O)c(OCCn3nc(C)cc3C)cc12 [Example 425, 5-[2-(3,5-Dimethyl-pyrazol-1-yl)-ethoxy]-2-(4-fluoro-phenyl)-6-(methanesulfonyl-methyl-amino)-benzofuran-3-carboxylic acid methylamide]
[1]; [3]
  EC50: < 1000 nM
[2]; [4]
  IC50: ≤ 500 nM

## CNC(=O)c1c(-c2ccc(F)cc2)oc2cc(C(C)(C)NC(C)=O)c(OC)cc12 [Example 385, 6-(1-Acetylamino-1-methyl-ethyl)-2-(4-fluoro-phenyl)-5-methoxy-benzofuran-3-carboxylic acid methylamide]
[1]; [3]
  EC50: < 1000 nM
[2]; [4]
  IC50: ≤ 500 nM

## CNC(=O)c1c(-c2ccc(F)cc2)oc2cc(N3CCOCC3)c(OCC(C)(C)O)cc12 [Example 250, 2-(4-Fluoro-phenyl)-5-(2-hydroxy-2-methyl-propoxy)-6-morpholin-4-ylbenzofuran-3-carboxylic acid methylamide]
[1]; [9]
  EC50: < 10000 nM
[2]; [7]
  IC50: 500 to 5000 nM

## CNC(=O)c1c(-c2ccc(F)cc2)oc2cc(NS(C)(=O)=O)c(OC)cc12 [Example 122, 2-(4-Fluoro-phenyl)-6-methanesulfonylamino-5-methoxy-benzofuran-3-carboxylic acid methylamide]
[1]; [8]
  EC50: < 1000 nM
[2]; HCV NS5B RdRp, BB7 genotype 1b
  IC50: ≤ 500 nM

## CNC(=O)c1c(-c2ccc(F)cc2)oc2ccc(OCc3ccc(C(=O)O)cc3)cc12 [Example 259, 4-[2-(4-Fluoro-phenyl)-3-methylcarbamoyl-benzofuran-5-yloxymethyl]-benzoic acid]
[1]; [9]
  EC50: < 30000 nM
[2]; [7]
  IC50: 500 to 5000 nM

## CNC(=O)c1c(-c2ccccc2Cl)oc2ccc(OC)cc12 [Example 66, 2-(2-Chloro-phenyl)-5-methoxy-benzofuran-3-carboxylic acid methylamide]
[1]; [10]
  EC50: > 30000 nM
[2]; [11]
  IC50: 5000 to 30000 nM

## CNC(=O)c1c(-c2ccc(F)cc2)oc2cc(N(CCOC(F)(F)F)S(C)(=O)=O)c(OC)cc12 [Example 316, 2-(4-Fluoro-phenyl)-6-[methanesulfonyl-(2-trifluoromethoxy-ethyl)-amino]-5-methoxy-benzofuran-3-carboxylic acid methylamide]
[1]; [9]
  EC50: < 1000 nM
[2]; [7]
  IC50: 500 to 5000 nM

## CCc1cc2c(C(=O)NC)c(-c3ccc(F)cc3)oc2cc1N(CCOC)S(C)(=O)=O [Example 335, 5-Ethyl-2-(4-fluoro-phenyl)-6-[methanesulfonyl-(2-methoxy-ethyl)-amino]-benzofuran-3-carboxylic acid methylamide]
[1]; [9]
  EC50: < 1000 nM
[2]; [12]
  IC50: ≤ 500 nM

## CNC(=O)c1c(-c2ccc(F)cc2)oc2cc(N(C)S(C)(=O)=O)c(OCc3nccn3C)cc12 [Example 398, 2-(4-Fluoro-phenyl)-6-(methanesulfonyl-methyl-amino)-5-(1-methyl-1H-imidazol-2-ylmethoxy)-benzofuran-3-carboxylic acid methylamide]
[1]; [3]
  EC50: < 1000 nM
[2]; [4]
  IC50: ≤ 500 nM

## CCNc1cc2oc(-c3ccc(F)cc3)c(C(=O)NC)c2cc1O [Example 364, 6-Ethylamino-2-(4-fluoro-phenyl)-5-hydroxy-benzofuran-3-carboxylic acid methylamide]
[1]; [9]
  EC50: > 30000 nM
[2]; [12]
  IC50: 500 to 5000 nM

## CNC(=O)c1c(-c2ccc(F)cc2)oc2cc(N3CCOCC3)c(OC(F)F)cc12 [Example 172, 5-Difluoromethoxy-2-(4-fluoro-phenyl)-6-morpholin-4-yl-benzofuran-3-carboxylic acid methyalmide]
[1]; [5]
  EC50: < 1000 nM
[2]; [6]
  IC50: ≤ 500 nM

## CNC(=O)c1c(-c2ccc(F)cc2)oc2cc(N(C)S(C)(=O)=O)c(O)cc12 [Example 287, 2-(4-Fluoro-phenyl)-5-hydroxy-6-(methanesulfonyl-methyl-amino)-benzofuran-3-carboxylic acid methylamide]
[1]; [9]
  EC50: < 10000 nM
[2]; [7]
  IC50: ≤ 500 nM

## CNC(=O)c1c(-c2ccc(F)cc2)oc2cc(N(C)S(C)(=O)=O)c(OCc3nnsc3Cl)cc12 [Example 397, 5-(5-Chloro-[1,2,3]thiadiazol-4-ylmethoxy)-2-(4-fluoro-phenyl)-6-(methanesulfonyl-methyl-amino)-benzofuran-3-carboxylic acid methylamide]
[1]; [3]
  EC50: < 1000 nM
[2]; [4]
  IC50: ≤ 500 nM

## CNC(=O)c1c(-c2ccc(F)cc2)oc2cc(N3CCCS3(=O)=O)c(OC(C)C)cc12 [Example 134, 6-(1,1-Dioxido-isothiazolidin-2-yl)-2-(4-fluoro-phenyl)-5-isopropoxy-benzofuran-3-carboxylic acid methylamide]
[1]; [8]
  EC50: < 10000 nM
[2]; HCV NS5B RdRp, BB7 genotype 1b
  IC50: 500 to 5000 nM

## CNC(=O)c1c(-c2ccc(F)cc2)oc2cc(C3CCCN3S(C)(=O)=O)c(OC(C)C)cc12 (stereo not shown) [Example 275, 2-(4-Fluoro-phenyl)-5-isopropoxy-6-(1-methanesulfonyl-pyrrolidin-2-yl)-benzofuran-3-carboxylic acid methylamide]
[1]; [9]
  EC50: < 1000 nM
[2]; [7]
  IC50: ≤ 500 nM

## CNC(=O)c1c(-c2ccc(F)cc2)oc2cc(Br)c(OC(C)C)cc12 [Example 92, 6-Bromo-2-(4-fluoro-phenyl)-5-isopropoxy-benzofuran-3-carboxylic acid methylamide]
[1]; [8]
  EC50: < 1000 nM
[2]; HCV NS5B RdRp, BB7 genotype 1b
  IC50: ≤ 500 nM

## CCc1cc2c(C(=O)NC)c(-c3ccc(F)cc3)oc2cc1C(C)(C)O [Example 339, 5-Ethyl-2-(4-fluoro-phenyl)-6-(1-hydroxy-1-methyl-ethyl)-benzofuran-3-carboxylic acid methylamide]
[1]; [9]
  EC50: < 1000 nM
[2]; [12]
  IC50: ≤ 500 nM

## CNC(=O)c1c(-c2ccc(F)cc2)oc2cc(-c3cc(COC)on3)c(OC)cc12 [Example 313, 2-(4-Fluoro-phenyl)-5-methoxy-6-(5-methoxymethyl-isoxazol-3-yl)-benzofuran-3-carboxylic acid methylamide]
[1]; [9]
  EC50: < 1000 nM
[2]; [7]
  IC50: ≤ 500 nM

## CNC(=O)c1c(-c2ccc(F)cc2)oc2cc(N(Cc3ccc(OC)cc3)S(C)(=O)=O)c(OC(C)C)cc12 [Example 281, 2-(4-Fluoro-phenyl)-5-isopropoxy-6-[methanesulfonyl-(4-methoxy-benzyl)-amino]-benzofuran-3-carboxylic acid methylamide]
[1]; [9]
  EC50: < 1000 nM
[2]; [7]
  IC50: ≤ 500 nM

## CNC(=O)c1c(-c2ccc(F)cc2)oc2cc(N3CCOCC3)c(OCc3nccn3Cc3ccccc3)cc12 [Example 216, 5-(1-Benzyl-1H-imidazol-2-ylmethoxy)-2-(4-fluoro-phenyl)-6-morpholin-4-yl-benzofuran-3-carboxylic acid methylamide]
[1]; [5]
  EC50: < 1000 nM
[2]; [6]
  IC50: ≤ 500 nM

## CNC(=O)c1c(-c2ccc(F)cc2)oc2cc(N3CCC3)c(OC(C)C)cc12 [Example 109]
[1]; ranges of EC50 in HCV replicon assay
  EC50: < 1000 nM
[2]; HCV NS5B RdRp, BB7 genotype 1b
  IC50: ≤ 500 nM

## CCN(CC)c1cc2oc(-c3ccc(F)cc3)c(C(=O)NC)c2cc1OC(C)C [Example 23, 6-Diethylamino-2-(4-fluoro-phenyl)-5-isopropoxy-benzofuran-3-carboxylic acid methylamide]
[1]; [10]
  EC50: < 1000 nM
[2]; [11]
  IC50: ≤ 500 nM

## CNC(=O)c1c(-c2ccc(F)cc2)oc2cc(-c3cc(COC(C)C)on3)c(OC)cc12 [Example 372, 2-(4-Fluoro-phenyl)-6-(5-isopropoxymethyl-isoxazol-3-yl)-5-methoxy-benzofuran-3-carboxylic acid methylamide]
[1]; [9]
  EC50: < 1000 nM
[2]; [12]
  IC50: ≤ 500 nM

## CNC(=O)c1c(-c2ccc(F)cc2)oc2cc(CN(C)C)c(OC(C)C)cc12 [Example 237, 6-Dimethylaminomethyl-2-(4-fluoro-phenyl)-5-isopropoxybenzofuran 3-carboxylic acid methylamide]
[1]; [5]
  EC50: < 30000 nM
[2]; [6]
  IC50: 5000 to 30000 nM

— patent publication US7265152B2 (ViroPharma Incorporated, priority 2002, dated 2007)
